Source: US5342834A, “Method for androgen supplementation” (priority 1992, dated 1994)
Entries after “also recorded” stand apart in the source; their conditions may differ.

Columns and labels:
[1] = Metabolism (5α reduction) of 3H-androgens by rat ventral prostate homogenate; format: in vitro ADME; settings: for metabolism / 5α reduction in prostate (in words): prostate homogenate; for metabolised at 0.5 h: rat, ventral prostate homogenate, ventral prostate, androgen = 100%, 30 min incubation, read-out: Conversion of 5α reduced metabolites: 5α-dihydro-steroid
Method: To study metabolism in rat prostate, ventral prostates (1 g) were collected in ice-cold saline. All subsequent operations were carried out at 0°-4° C. The tissues were washed three times with homogenizing buffer (50 mM tris, 1.5 mM EDTA, 1 mM dithiothreitol and 10% glycerol, pH 7.5) and then homogenized in 4 vol. of the same buffer using an Ultra-turrax at a setting of 6. The prostates were given three 10 seconds bursts with intermittent cooling. The resulting homogenate was passed through four layers of cheesecloth and the filtrate was collected.
Incubation mixtures consisted of 50 nmol of unlabeled steroid, 40,000 CPM of the corresponding tritiated steroid and 1 μmol of NADPH in 0.2 ml of the buffer. The mixture was equilibrated for 10 min at 37° C. Reaction was started by adding 0.8 ml of homogenate (5.3 mg/ml protein). After 30 min of incubation, the mixture was cochromatographed with authentic steroids selected as possible metabolites.

[2] = Metabolism by rat liver 13K supernatant fraction; format: in vitro ADME; settings: 30 min, 37° C., system enriched with NADPH
Method: (§1) To prepare rat liver microsomes and cytosol, thawed livers were homogenized in 4 vol. of TED buffer (10mM Tricine, 1.5 mM EDTA, 1 mM dithiothreitol, pH 7.4) using a glass homogenizer and a loosefitting Teflon piston for nine strokes with intermittent cooling. This and all subsequent steps were performed at 4° C. The homogenate was spun at 13000×g for 30 min in a Sorvall refrigerated centrifuge. The supernatant fraction was recentrifuged at 13000×g for another 30 min. The resulting supernatant fraction (13K supernatant) was centrifuged at 105,000×g using a Beckman Ultracentrifuge (Model L) for 60 min. The 105K supernatant (cytosol) was saved. The microsomal pellet was resuspended in TED buffer, and spun down again at 105,000×g. The resulting pellet is known as the 105K pellet of the microsome fraction (or "microsome") .
Incubation mixtures consisted of 52 nmol of unlabeled steroid (T, 7MNT or 19NT), approximately 40,000 CPM of the corresponding tritiated steroid and 5 umol of NADPH in 0.2 ml TED buffer (pH 7.4). This was incubated for 10 min at 37° C. in a constant temperature water bath. Reaction was initiated by the addition of 0.8 ml of either 13K supernatant, microsomes or cytosol, containing 7.05, 0.62 or 5.64 mg/ml of protein, respectively. […] The combined organic phase was evaporated and the remaining steroids were analyzed. […]

[3] = Metabolism (decrease of steroid level) in incubation with rat liver cytosol; format: in vitro ADME; settings: for remaining at 2 h: 2h incubation, read-out: steroid remaining unmetabolized / recovered
Method: as §1
(§2) Incubation mixtures consisted of 52 nmol of unlabeled steroid (T, 7MNT or 19NT), approximately 40,000 CPM of the corresponding tritiated steroid and 5 umol of NADPH in 0.2 ml TED buffer (pH 7.4). This was incubated for 10 min at 37° C. in a constant temperature water bath. Reaction was initiated by the addition of 0.8 ml of either 13K supernatant, microsomes or cytosol, containing 7.05, 0.62 or 5.64 mg/ml of protein, respectively. Incubations were quenched with 2 ml of ethyl acetate, vortexed briefly, and frozen in a dry ice-alcohol bath. The ethyl acetate was separated from the frozen aqueous phase. Extraction was performed again in the same way. The combined organic phase was evaporated and the remaining steroids were analyzed.
The procedure used for the cytosol preparations was the same as that for microsomes, except that incubations were carried out for 90 min.
(§3) For isolation of radioactive metabolites, the procedure was the same as for unlabeled metabolites, except that each tube contained 50,000 CPM of ^3 H-labeled 7MNT.
(§4) In this series of experiments, the decreases in the levels of testosterone,19-nortestosterone, and 7MNT were followed over a two-hour period of incubation with microsomal or cytosolic fractions of rat liver. […] Catabolism of 19NT was maximum at 30 min, with no further change beyond that, leaving a persistent unmetabolized residue of about 20 percent of the added steroid. After 30 min of incubation, 85 percent of the 7MNT remained unaltered; forty percent of the 7MNT was recovered after 2h.

[4] = Metabolism (decrease of steroid level) in incubation with rat liver microsomes; format: in vitro ADME
Method: as §1, §2
In preparation for the isolation and identification of unlabelled steroid metabolites in the microsome preparations, 360 μg of 7MNT were dispensed into 24 tubes in parallel with identical tubes containing ^3 H-labeled 7MNT to be used as marker steroid. The mixtures were incubated for 60 min at 37° C., extracted twice with 2 ml of ethyl acetate, taken to dryness, redissolved in a mixture of dichloromethane/methanol (1:1, v/v) and quantitatively applied to silica gel coated TLC plates along with synthetically prepared suspected metabolites of radioactive 7MNT in a parallel lane. The plates were developed with chloroform/methanol (95:5, v/v). Spots corresponding to the radioactive marked spots were eluted with ethyl acetate and taken to dryness.
as §3, §4

[5] = Non-androgenic (e.g. progestational) activity
[6] = Metabolism (5α reduction) of 3H-androgens by rat epididymis; format: in vitro ADME; settings: for metabolised: rat, epididymis homogenate, pH 7.4, androgen = 100%, read-out: Conversion of 5α reduced metabolites: Diols
Method: The metabolism of T, 19NT and 7MNT by rat epididymis was also studied. Collected epididymides were processed as described for prostate. Incubations were performed in Tricine-buffer pH 7.4 as used for liver incubations. Thin layer chromatography of metabolic mixtures and standards was performed as described for prostate preparations.

[7] = background statement; cited from earlier work

Compound | metabolism / 5α reduction in prostate (in words) [1] | androgen potency (in words) (Androgenic potency) | metabolism by 13K supernatant (in words) [2] | metabolism in cytosol (in words) [3] | metabolism in microsomes (in words) [4] | remaining at 0.5 h ([4]; after 30 min of incubation, read-out: steroid remaining unaltered) | steroid recovered ([4]; after 2h) | non-androgenic activity (in words) [5] | metabolism / 5α reduction in epididymis (in words) [6] | metabolised at 0.5 h [1] | remaining at 2 h [3] | persistent unmetabolized residue of the added steroid ([4]; beyond 30 min of two-hour incubation) | time of maximum catabolism ([4]; two-hour incubation) | metabolised [6] | androgen potency versus testosterone (in words) [7] | time before which steroid was completely metabolized ([4]; earliest aliquot taken at 15 min)
C[C@@H]1CC2=CC(=O)CC[C@@H]2[C@H]2CC[C@]3(C)[C@@H](O)CC[C@H]3[C@@H]21 [7MNT, 7α-methyl-19-nortestosterone] | substantially no 5α-dihydro product was formed in either tissue; also recorded: remained unmetabolized; also recorded: did not reduce or otherwise metabolize 7MNT; also recorded: not converted to the 5α-dihydro product | high potency | relatively resistant to metabolism under these incubation conditions; also recorded: Two metabolites, tentatively identified as 7α-methyl-5β-estrane-3, 17β-diol and 7α-methyl-estr-4-ene-3, 17-dione were found; also recorded: A minor highly polar metabolite was also observed | Half of the starting 7MNT was recovered after 2h incubation; also recorded: generated at least one metabolite that was more polar than the parent compound | After 30 min of incubation, most of the 7MNT was retrieved unaltered; also recorded: Two significant 7α-methylated metabolites were observed: a less polar one representing the 3,17-dione, and a more polar one in the region of the diols or triols; also recorded: An additional quantitatively minor polar metabolite was also detected | 85% | forty | lack of significant non-androgenic activity | substantially no 5α-dihydro product was formed in either tissue; also recorded: epididymis did not reduce or otherwise metabolize 7MNT | – | – | – | – | – | – | –
C[C@]12CC[C@H]3[C@@H](CCC4=CC(=O)CC[C@@H]43)[C@@H]1CC[C@@H]2O [19NT, 19-nortestosterone] | metabolized to the reduced product more slowly than testosterone | – | – | still slower | qualitatively similar to that of T, though slower | – | – | – | converted to their respective reduced A ring metabolites; also recorded: metabolized more slowly than T | 22% | 40% | about 20% | 30 min | 57% | – | –
C[C@]12CCC(=O)C[C@@H]1CC[C@@H]1[C@@H]2CC[C@]2(C)[C@@H](O)CC[C@@H]12 [DHT, 5α-dihydrotestosterone] | – | – | – | – | – | – | – | – | – | – | – | – | – | – | much more potent androgen than testosterone | –
C[C@]12CC[C@H]3[C@@H](CCC4=CC(=O)CC[C@@]43C)[C@@H]1CC[C@@H]2O [T, testosterone] | nearly half of the added T was reduced to 5α-DHT | – | – | – | completely metabolized by the microsomes before the earliest aliquot was taken | – | – | – | converted to their respective reduced A ring metabolites | 48% | ~12% | – | – | 86% | – | < 15 min
